Test results taken from US8350048B2, “Amide compounds as boosters of antivirals” (Janssen R&D Ireland, priority 2007, dated 2013).
Read-outs that look alike come from different tables or passages of the source.

How the values were obtained:
[1] = Metabolic stability of test compounds (HLM15'); format: in vitro ADME, human
[2] = molecular target: CYP2C9 (Homo sapiens, UniProt P11712); assay: in vitro
From the text: (§1) Assay 4: CYP450 Inhibition

[3] = In vivo boosting capacity: pharmacokinetics of darunavir in Beagle dogs; details: fed male Beagle dogs, booster 5 mg/kg oral 15 min before darunavir 5 mg/kg oral, average of 3 dogs
Method: Oral dosing was done by gavage. At all times, the dogs were given free and continuous access to water. Blood samples were collected from the jugular vein at 0 (=predose), 0.5, 1, 2, 4, 7, and 24 h after dose administration. The samples were centrifuged at 1900×g for 10 min at 5° C. to allow plasma separation. Separated plasma was stored in the freezer within two hours after blood sampling. At all times, blood and plasma samples were placed on melting ice and protected from light. […] Values listed are the average of 3 dogs.

[4] = system: MT4 CMV-EGFP cells; assay: Toxicity, mock-infected MT4 CMV-EGFP cells; format: cell-based, human
[5] = system: wild-type HIV-1IIIB strain; assay: Antiviral activity, MT4 LTR-EGFP cellular assay; format: cell-based; parameters: key to Antiviral activity IIIB (pEC50): pEC50 = -log10(EC50); details: wild-type HIV-1 IIIB, MT4 LTR-EGFP cells, three days after infection
[6] = molecular target: T1, CYP3A4 (Homo sapiens, UniProt P08684); assay: in vitro; details: 10 μM test compound, substrate DBF 1 μM, 10 min
T1 sequence (P08684 whole entry): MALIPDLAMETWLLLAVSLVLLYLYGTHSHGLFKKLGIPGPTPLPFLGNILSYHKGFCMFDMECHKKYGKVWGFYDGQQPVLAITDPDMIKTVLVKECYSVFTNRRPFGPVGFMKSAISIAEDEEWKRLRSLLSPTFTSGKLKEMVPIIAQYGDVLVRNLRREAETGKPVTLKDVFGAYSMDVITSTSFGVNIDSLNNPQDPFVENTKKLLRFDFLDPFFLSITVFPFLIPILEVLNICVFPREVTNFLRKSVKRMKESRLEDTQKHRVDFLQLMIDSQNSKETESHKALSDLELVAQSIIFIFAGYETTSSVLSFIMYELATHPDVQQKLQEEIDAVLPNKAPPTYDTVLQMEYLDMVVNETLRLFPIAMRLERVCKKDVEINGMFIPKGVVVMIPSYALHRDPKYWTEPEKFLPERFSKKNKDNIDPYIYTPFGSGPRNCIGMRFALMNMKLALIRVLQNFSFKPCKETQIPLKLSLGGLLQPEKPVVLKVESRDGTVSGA
From the text: as §1

[7] = molecular target: CYP2C19 (Homo sapiens, UniProt P33261); assay: CYP450 inhibition CDNA-CYP2C19-CEC; details: 10 μM test compound, substrate CEC 25 μM, 30 min
CYP2C19, sequence (P33261 whole entry): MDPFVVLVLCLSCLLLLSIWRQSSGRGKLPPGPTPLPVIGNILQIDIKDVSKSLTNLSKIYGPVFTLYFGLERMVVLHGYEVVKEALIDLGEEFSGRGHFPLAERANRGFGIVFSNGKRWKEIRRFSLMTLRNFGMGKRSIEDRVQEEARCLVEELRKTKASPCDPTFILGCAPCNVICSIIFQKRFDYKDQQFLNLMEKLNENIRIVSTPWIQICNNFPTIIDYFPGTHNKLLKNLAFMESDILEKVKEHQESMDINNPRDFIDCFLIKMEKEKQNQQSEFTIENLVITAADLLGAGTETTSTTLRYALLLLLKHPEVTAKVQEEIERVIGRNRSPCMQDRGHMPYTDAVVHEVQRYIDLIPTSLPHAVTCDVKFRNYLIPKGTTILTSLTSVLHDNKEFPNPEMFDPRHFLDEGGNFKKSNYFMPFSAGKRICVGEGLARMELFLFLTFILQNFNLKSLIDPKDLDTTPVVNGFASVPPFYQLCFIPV

[8] = molecular target: T2, CYP1A2 (Homo sapiens, UniProt P05177); assay: CYP450 inhibition CDNA-CYP1A2-CEC; details: 10 μM test compound, substrate CEC 5 μM, 15 min
T2 sequence (P05177 1-516): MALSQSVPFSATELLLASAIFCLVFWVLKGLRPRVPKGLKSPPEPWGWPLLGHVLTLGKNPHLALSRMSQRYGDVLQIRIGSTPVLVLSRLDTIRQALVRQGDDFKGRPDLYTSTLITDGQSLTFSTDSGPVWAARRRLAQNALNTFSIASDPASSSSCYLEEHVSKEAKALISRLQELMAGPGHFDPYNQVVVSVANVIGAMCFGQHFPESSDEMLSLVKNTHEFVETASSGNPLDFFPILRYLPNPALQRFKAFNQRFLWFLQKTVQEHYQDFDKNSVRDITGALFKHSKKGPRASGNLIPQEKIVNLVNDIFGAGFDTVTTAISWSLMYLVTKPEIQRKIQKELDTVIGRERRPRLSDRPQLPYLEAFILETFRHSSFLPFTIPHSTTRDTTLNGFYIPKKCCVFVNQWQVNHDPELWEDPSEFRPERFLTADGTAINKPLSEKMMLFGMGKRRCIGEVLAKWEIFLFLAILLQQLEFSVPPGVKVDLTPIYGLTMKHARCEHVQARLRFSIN

[9] = molecular target: CYP2D6 (Homo sapiens, UniProt P10635); assay: CYP450 inhibition CDNA-CYP2D6-AMMC; details: 10 μM test compound, substrate AMMC 3 μM, 45 min
CYP2D6, sequence (P10635 whole entry): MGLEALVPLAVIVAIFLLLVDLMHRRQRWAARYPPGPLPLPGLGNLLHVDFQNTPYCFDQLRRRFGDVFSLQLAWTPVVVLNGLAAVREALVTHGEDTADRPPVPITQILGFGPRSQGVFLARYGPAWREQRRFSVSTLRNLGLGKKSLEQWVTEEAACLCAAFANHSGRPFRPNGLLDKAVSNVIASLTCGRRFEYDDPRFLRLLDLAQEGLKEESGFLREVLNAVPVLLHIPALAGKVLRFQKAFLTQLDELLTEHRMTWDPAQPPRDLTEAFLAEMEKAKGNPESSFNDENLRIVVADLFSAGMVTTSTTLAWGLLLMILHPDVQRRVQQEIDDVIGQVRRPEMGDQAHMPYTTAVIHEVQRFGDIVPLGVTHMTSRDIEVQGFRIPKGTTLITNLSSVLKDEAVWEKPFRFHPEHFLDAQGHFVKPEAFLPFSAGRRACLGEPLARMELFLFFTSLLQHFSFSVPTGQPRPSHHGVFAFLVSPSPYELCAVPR

[10] = molecular target: T1, CYP3A4; assay: CYP450 inhibition CDNA-CYP3A4-BQ; details: 10 μM test compound, substrate BQ 60 μM, 30 min
From the text: as §1

[11] = molecular target: T1, CYP3A4; assay: CYP450 inhibition CDNA-CYP3A4-BFC; details: 10 μM test compound, substrate BFC 150 μM, 30 min
From the text: as §1

[12] = human liver microsomes 1 mg/ml, 5 μM test compound, 15 min
[13] = mock-infected MT4 CMV-EGFP cells

CYP2C9, sequence (P11712 whole entry): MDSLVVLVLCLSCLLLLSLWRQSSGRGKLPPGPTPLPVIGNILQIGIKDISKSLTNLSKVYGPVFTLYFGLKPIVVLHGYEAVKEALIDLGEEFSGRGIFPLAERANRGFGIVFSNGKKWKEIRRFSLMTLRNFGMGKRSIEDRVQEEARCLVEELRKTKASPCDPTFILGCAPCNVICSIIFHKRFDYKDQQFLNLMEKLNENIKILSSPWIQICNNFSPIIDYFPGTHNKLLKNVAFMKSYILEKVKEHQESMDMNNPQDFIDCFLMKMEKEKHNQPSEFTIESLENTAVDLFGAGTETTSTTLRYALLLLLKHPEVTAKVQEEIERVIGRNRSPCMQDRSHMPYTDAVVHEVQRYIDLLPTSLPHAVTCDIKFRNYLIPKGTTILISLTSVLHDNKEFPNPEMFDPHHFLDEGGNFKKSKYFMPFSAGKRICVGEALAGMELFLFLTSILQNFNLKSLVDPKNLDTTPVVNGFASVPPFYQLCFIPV

SMILES | Metabolic stability (HLM, % recovery after 15') [1, 12] [%] | Cyp450 inhibition: CDNA-CYP2C9-MFC (% inhibition) [2] [%] | C7h of darunavir [3] [ng/mL] | Toxicity MT4 (pCC50) [4] | Antiviral activity IIIB (pEC50) [5] | Metabolic stability (HLM, % recovery after 15') [1] [%] | Cyp450 inhibition: CDNA-CYP3A4-DBF (% inhibition) [6] [%] | Cyp450 inhibition: CDNA-CYP2C19-CEC (% inhibition) [7] [%] | Cyp450 inhibition: CDNA-CYP1A2-CEC (% inhibition) [8] [%] | Cyp450 inhibition: CDNA-CYP2D6-AMMC (% inhibition) [9] [%] | Cyp450 inhibition: CDNA-CYP3A4-BQ (% inhibition) [10] [%] | Toxicity MT4 (pCC50) [4, 13] | Cyp450 inhibition: CDNA-CYP3A4-BFC (% inhibition) [11] [%]
CC(C)CN(C[C@@H](O)[C@H](Cc1ccccc1)NC(=O)OCc1cncs1)C(=O)c1ccc2ncsc2c1 [Compound C7] | 65 | 99 | 134 | =4.00 | =4.02 | – | – | – | – | – | – | – | –
CC(C)CN(C[C@@H](O)[C@H](Cc1ccccc1)NC(=O)OCc1cncs1)C(=O)c1ccc2nc(-c3ccncc3)oc2c1 [Compound C48] | – | 99 | – | – | <4.00 | 91 | 98 | 94 | 18 | 74 | 85 | <4.00 | 97
CCNc1nc2ccc(C(=O)N(CC(C)C)C[C@@H](O)[C@H](Cc3ccccc3)NC(=O)OCc3cncs3)cc2o1 [Compound C27] | 52 | 94 | – | – | =4.07 | – | 94 | 79 | 10 | 70 | 80 | <4.00 | 94
CCNc1nc2ccc(C(=O)N(C[C@@H](O)[C@H](Cc3ccccc3)NC(=O)OCc3cncs3)CC(C)(C)O)cc2o1 [Compound C44] | 70 | 95 | – | – | <4.00 | – | – | 62 | 0 | 38 | – | <4.00 | –
CC(C)CN(C[C@@H](O)[C@H](Cc1ccccc1)NC(=O)OCc1cncs1)C(=O)c1ccc2nc(NC3CCN(C)CC3)oc2c1 [Compound C25] | 8 | 12 | – | – | <4.00 | – | 76 | 7 | 0 | 67 | 71 | <4.00 | 77
CC(C)CN(C[C@@H](O)[C@H](Cc1ccccc1)NC(=O)OCc1cncs1)C(=O)c1ccc2nc(N(C)C)oc2c1 [Compound C4] | 67 | 94 | – | – | =4.33 | – | – | 82 | 7 | 26 | – | =4.32 | –
